In PubChem BioAssay (NCI):
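These data come from cells grown in 96-well plates and exposed to compound for 48 hours at five concentrations. The concentration for 50% growth inhibition is given as GI50. The concentration for full growth arrest is given as TGI.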

What was measured:
Assay in all cases: NCI tumour cell line growth inhibition, 48 h
[1] = system: U251 CNS
[2] = system: UO-31 renal
[3] = system: SK-MEL-28 melanoma
[4] = system: ACHN renal
[5] = system: COLO 205 colon
[6] = system: SK-MEL-2 melanoma
[7] = system: SF-268 CNS
[8] = system: SNB-75 CNS
[9] = system: OVCAR-8 ovarian
[10] = system: MALME-3M melanoma

SMILES | TGI [1] | TGI [2] | TGI [3] | TGI [4] | TGI [5] | TGI [6] | TGI [7] | TGI [8] | TGI [9] | TGI [10] | GI50 [1] | GI50 [2] | GI50 [3] | GI50 [4] | GI50 [5] | GI50 [6] | GI50 [7] | GI50 [8] | GI50 [9] | GI50 [10]
CCc1cccc(CC)c1NC(=O)C1=C(C)NC(C)=C(C(=O)Nc2c(CC)cccc2CC)C1c1ccc([N+](=O)[O-])cc1 | > 100 µM | > 100 µM | 39.9 µM | > 100 µM | 54.5 µM | 65.3 µM | > 100 µM | > 100 µM | 64.3 µM | 46.8 µM | – | – | – | – | – | – | – | – | – | –
O=c1c2cccc3cccc(c4n1CCN=4)c32 | > 100 µM | > 100 µM | > 100 µM | > 100 µM | > 100 µM | > 100 µM | > 100 µM | > 100 µM | > 100 µM | > 100 µM | – | – | – | – | – | – | – | – | – | –
CC(C)(C)[Si](C)(C)OC1[C@@H](O[Si](C)(C)C(C)(C)C)[C@@H](CNC(=O)NC(=O)CCl)O[C@H]1n1cnc2c(NC(=O)Nc3ccccc3)ncnc21 (stereo not given in full) | 1.21 µM | 0.2 µM | 1.69 µM | 1.54 µM | 3.5 µM | 2.01 µM | 1.44 µM | 1.28 µM | 1.42 µM | 1.62 µM | 0.51 µM | 0.0763 µM | 0.916 µM | 0.782 µM | 1.41 µM | 1.13 µM | 0.665 µM | 0.536 µM | 0.307 µM | 0.796 µM
COc1ccc(C(=O)c2cc3c(N)c(C(=O)Nc4ccc(C)cc4)sc3nc2C)cc1 | 28.8 µM | 27.3 µM | > 100 µM | 29.2 µM | > 100 µM | 34.7 µM | 48.7 µM | 5.99 µM | > 100 µM | 39.3 µM | 3.6 µM | 3.11 µM | 13.6 µM | 5.28 µM | 3.47 µM | 4.04 µM | 5.66 µM | 0.571 µM | 5.25 µM | 4.46 µM
O=C1/C(=C\c2ccccn2)c2ccccc2N1c1c(Cl)cccc1Cl | 3.68 µM | 3.11 µM | 4.03 µM | 3.91 µM | 4.81 µM | 6.32 µM | 9.54 µM | 15.4 µM | 8.34 µM | 4.89 µM | 1.84 µM | 1.47 µM | 1.84 µM | 1.82 µM | 2.04 µM | 2.53 µM | 2.96 µM | 2.01 µM | 2.41 µM | 1.74 µM
COC(=O)C(Cc1nc2ccccc2[nH]c1=O)C(=O)C(=O)Nc1ccc([N+](=O)[O-])cc1[N+](=O)[O-] (stereo not given) | 32.5 µM | 43.6 µM | 40.1 µM | 33.3 µM | 35.2 µM | 69 µM | 47.7 µM | 39.3 µM | 52.6 µM | 34.3 µM | – | – | – | – | – | – | – | – | – | –
CCc1cc(CCC(=O)Nc2c(C)cccc2C)[nH]n1 | > 100 µM | > 100 µM | > 100 µM | > 100 µM | > 100 µM | > 100 µM | > 100 µM | > 100 µM | > 100 µM | > 100 µM | – | – | – | – | – | – | – | – | – | –
O=Cc1ccc(-c2ccc(-c3nc4ccccc4o3)cc2)o1 | 88.1 µM | 68.5 µM | > 100 µM | 58.2 µM | > 100 µM | > 100 µM | > 100 µM | > 100 µM | > 100 µM | 65 µM | 25.4 µM | 22.7 µM | 64.5 µM | 21.1 µM | 46.9 µM | 66.4 µM | 29.6 µM | 81.9 µM | 33.3 µM | 24.6 µM
O=c1c(Cl)c(Cl)c(=O)c2sc3cc(Cl)ccc3[nH]c1=2 | > 100 µM | 36 µM | > 100 µM | > 100 µM | > 100 µM | > 100 µM | > 100 µM | > 100 µM | 35 µM | > 100 µM | – | – | – | – | – | – | – | – | – | –
Nc1ccn(C2OC(COC(=O)C34CC5CC(CC(C5)C3)C4)C(O)C2O)c(=O)n1 (stereo not given) | > 100 µM | > 100 µM | > 100 µM | > 100 µM | > 100 µM | > 100 µM | > 100 µM | > 100 µM | > 100 µM | > 100 µM | – | – | – | – | – | – | – | – | – | –
CN(C)C=C1C(Cl)=C(C=O)CC(C=O)=C1Cl | 23.7 µM | 35.1 µM | 22.6 µM | 26.4 µM | 30.6 µM | 36.9 µM | 27.6 µM | 29.5 µM | 12.6 µM | 24.4 µM | – | – | – | – | – | – | – | – | – | –
Cc1nc(N2CCC3(CC2)CO[C@@H](C)[C@H]3N)c(CO)nc1Sc1ccnc(N)c1Cl | > 100 µM | > 100 µM | > 100 µM | > 100 µM | > 100 µM | > 100 µM | > 100 µM | > 100 µM | > 100 µM | > 100 µM | 3.92 µM | 0.973 µM | > 100 µM | 4.81 µM | > 73.4 µM | > 100 µM | 12.8 µM | 0.518 µM | 75.6 µM | > 100 µM
Cc1cc(Cl)ccc1NC(=O)C(=O)C(C(=O)c1ccc2ccccc2c1)C1OC(=O)c2ccccc21 (stereo not given) | 21.2 µM | 31.5 µM | 54.5 µM | > 100 µM | 28.5 µM | 27.3 µM | 60.5 µM | 49.2 µM | > 100 µM | 22.8 µM | – | – | – | – | – | – | – | – | – | –
CCOC(=N)CC(=O)c1ccccc1 | > 100 µM | > 100 µM | > 100 µM | > 100 µM | > 100 µM | > 100 µM | > 100 µM | > 100 µM | > 100 µM | > 100 µM | – | – | – | – | – | – | – | – | – | –
CCCN(CCCC(NC(C)=O)C(=O)NCc1ccccc1)C(=O)NCCCl (stereo not given) | > 100 µM | > 100 µM | > 100 µM | > 100 µM | > 100 µM | > 100 µM | > 100 µM | > 100 µM | > 100 µM | > 100 µM | – | – | – | – | – | – | – | – | – | –
COc1cccc(NC(=O)c2sc3nc4c(cc3c2N)C(=O)CCC4)c1 | 10.4 µM | > 100 µM | > 100 µM | > 100 µM | 2.15 µM | > 100 µM | > 100 µM | 12.7 µM | > 100 µM | > 100 µM | 0.158 µM | 0.449 µM | 0.81 µM | 0.568 µM | 0.0834 µM | 0.0611 µM | 0.725 µM | 0.0579 µM | 0.402 µM | 0.108 µM
